In PMC10536189 (Microorganisms, 2023):
Like-named read-outs stand apart in the source and are kept apart here.

What was measured:
[1] = test system: Mycobacterium avium subsp. paratuberculosis (MAP); type: cell-based
[2] = test system: mycobacteria; assay: TTP in VersaTrek system; type: cell-based; details: Peptide 14D; VersaTrek (ThermoFisher); Figure S1
Description: (§1) Peptide 14D was used to check if other machines that are routinely used in medical microbiology for the detection of mycobacteria show shorter TTP as well. BacT/Alert (Biomerieux, Marcy-l’Étoile, France and VersaTrek (ThermoFisher, Waltham, MA, United States) were tested, and shorter TTP was shown for both systems (see Figure S1 in the Supplementary Materials).

[3] = test system: MTB H37Rv; type: cell-based, Mycobacterium tuberculosis H37Rv; details: 14D at 1 µg/mL
[4] = test system: M. tuberculosis; type: cell-based, Mycobacterium tuberculosis (laboratory strain H37Rv); details: for Time to Positivity (Days.Hours) Experiment 2 / Time to Positivity (Days.Hours) Experiment 1: MGIT; for Time to Positivity (Days.Hours) Experiment 2: control (0 µg/mL) 6.12; for Time to Positivity (Days.Hours) Experiment 1: control (0 µg/mL) 6.19; for Average % Faster than Control: average of two independent experiments
[5] = test system: mycobacteria; assay: TTP in BacT/Alert system; type: cell-based; details: Peptide 14D; BacT/Alert (Biomerieux); Figure S1
Description: as §1

[6] = test system: Mycobacterium tuberculosis (MTB); type: cell-based, Mycobacterium tuberculosis (laboratory strain H37Rv)

In the case of wkivfwwrr-CONH2 [Peptide 14D], the “Growth enhancement after the peptide was removed” value [1] is reported as “reversible”, the “Effect on growth of MAP (growth-enhancing activity) of protease-stabilised peptides” value ([1]; peptide 10 µg/mL, absorbance at 600 nm) is reported as “small improvement in activity” and the “Effect on TTP” value [2] is reported as “shorter TTP”. For the same substance, the “Copy number compared with MTB control” value [3] was “higher copy number”, the Copy number ([3]; […], duplicates, cydA Taqman qPCR) was 1762000 and the “Time to Positivity (Days.Hours) Experiment 2” value ([4]; Peptide 14D 0.1 µg/mL) was 5.19 Days.Hours. For the same substance, the “Time to Positivity (Days.Hours) Experiment 1” value ([4]; Peptide 14D 0.1 µg/mL) was 5.12 Days.Hours, the “Average % Faster than Control” value ([4]; Peptide 14D 0.1 µg/mL) was 15.0% and the “Time to Positivity (Days.Hours) Experiment 2” value ([4]; Peptide 14D 0.5 µg/mL) was 5.17 Days.Hours. For the same substance, the “Time to Positivity (Days.Hours) Experiment 1” value ([4]; Peptide 14D 0.5 µg/mL) was 5.17 Days.Hours, the “Average % Faster than Control” value ([4]; Peptide 14D 0.5 µg/mL) was 14.1% and the “Time to Positivity (Days.Hours) Experiment 2” value ([4]; Peptide 14D 1 µg/mL) was 5.08 Days.Hours. The “Time to Positivity (Days.Hours) Experiment 1” value ([4]; Peptide 14D 1 µg/mL) was 5.05 Days.Hours, the “Average % Faster than Control” value ([4]; Peptide 14D 1 µg/mL) was 21.6% and the “Increase of time to positivity, first experiment” value ([4]; Peptide 14D 10 µg/mL) was 8 h. The “Increase of time to positivity, second experiment” value ([4]; Peptide 14D 10 µg/mL) was 20 h, the “Time to Positivity (Days.Hours) Experiment 2” value ([4]; Peptide 14D 10 µg/mL) was 7.08 Days.Hours and the “Time to Positivity (Days.Hours) Experiment 1” value ([4]; Peptide 14D 10 µg/mL) was 7.03 Days.Hours. The “Average % Faster than Control” value ([4]; Peptide 14D 10 µg/mL, negative = slower) was −7.3%, the “Time to Positivity (Days.Hours) Experiment 2” value ([4]; Peptide 14D 25 µg/mL) was 9.17 Days.Hours and the “Time to Positivity (Days.Hours) Experiment 1” value ([4]; Peptide 14D 25 µg/mL) was 9.21 Days.Hours. The “Average % Faster than Control” value ([4]; Peptide 14D 25 µg/mL, negative = slower) was −48.7%, the “Delay of growth (days to reach positivity relative to control)” value ([4]; Peptide 14D 50 µg/mL) was “about triple” and the “Time to Positivity (Days.Hours) Experiment 1” value ([4]; Peptide 14D 50 µg/mL) was 19.15 Days.Hours. The “Average % Faster than Control” value ([4]; Peptide 14D 50 µg/mL, negative = slower) was −207.6%, the “Effect on TTP” value [5] was “shorter TTP” and the “Concentration at which growth inhibition of MTB is observed” value [6] was at least 10 µg/mL. The “Concentration with strong sustained growth stimulation of MTB” value [6] was 1 µg/mL.
